PMC11742003, “Co-expression of the RPS6KB1 and PDPK1 genes for production of activated p70S6K1 using bac-to-bac baculovirus expression system” (Molecular Biology Reports, 2025)
pIC50: −log10 of the molar value.

Molecular target: T1, p70S6K1 (His-actS6K1; Ribosomal protein S6 kinase 1) (Homo sapiens, UniProt P23443, T412D)
T1 construct: gene RPS6KB1; 6xHis-tagged S6K1 residues 3-398 (ΔAID), phosphorylated at T229 by co-expressed PDPK1(ΔPH)
Assay: AlphaScreen kinase assay with biotinylated rpS6 peptide, […] ATP, purified enzyme
Assay type: biochemical

T1 sequence (P23443 26-421 T412D): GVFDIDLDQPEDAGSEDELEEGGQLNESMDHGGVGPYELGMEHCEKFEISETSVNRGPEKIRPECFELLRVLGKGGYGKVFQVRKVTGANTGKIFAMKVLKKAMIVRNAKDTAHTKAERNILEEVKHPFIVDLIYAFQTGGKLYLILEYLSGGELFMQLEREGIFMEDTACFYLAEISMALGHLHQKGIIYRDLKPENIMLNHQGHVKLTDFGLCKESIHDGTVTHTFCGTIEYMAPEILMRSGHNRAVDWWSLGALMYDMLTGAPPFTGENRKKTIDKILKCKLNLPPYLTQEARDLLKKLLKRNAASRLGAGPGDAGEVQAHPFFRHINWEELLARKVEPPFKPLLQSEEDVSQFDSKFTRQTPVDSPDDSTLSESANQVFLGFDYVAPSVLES

Cn1cc(-c2ccc(F)c(C(F)(F)F)c2)nc1C1CCN(c2ncnc3[nH]ncc23)CC1 [LY2584702]
pIC50: 8.38
